Test results taken from patent publication US20100298141A1, “SUBSTITUTED PYRIDINE N-OXIDE HERBICIDES” (E. I. DU PONT DE NEMOURS AND COMPANY, priority 2007, published 2010).

What was measured:
[1] = test system: Surinam grass; experiment: Test C pre-/postemergence test; type: in vivo, Brachiaria decumbens; settings: Postemergence; for Plant response rating, Surinam Grass: scale 0 to 100, 0 no effect, 100 complete control
In short: (§1)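 Seeds were planted and treated preemergence with test chemical in a non-phytotoxic solvent mixture containing surfactant. Postemergence applications of the same formulation went onto plants 2 to 18 cm tall (1- to 4-leaf stage). A dash marks no test result.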

[2] = test system: duck salad; experiment: Test C flooded paddy test; type: in vivo, Heteranthera limosa; settings: Flood
In short: (§2)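 In-water treatment: compound dosed into 3 cm flood over soil, water level unchanged throughout. Controls run alongside; visual assessment at day 13–15.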

[3] = test system: barnyardgrass; experiment: Test C flooded paddy test; type: in vivo, Echinochloa crus-galli; settings: Flood
In short: as §2

[4] = test system: wheat; experiment: Test A pre-/postemergence greenhouse test; type: in vivo, Triticum aestivum; settings: for Plant response rating, Wheat: 0 to 100 scale where 0 is no effect and 100 is complete control; for Wheat plant response rating: 0 to 100 scale
In short: (§3)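 Herbicidal effect is a visual injury score given about ten days post-treatment by comparison with untreated controls. Preemergence plots received a directed spray onto sown loam–sand soil; postemergence plants, at the one- to two-leaf stage and 2–10 cm tall, were sprayed at the same time.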

[5] = test system: giant foxtail; experiment: Test C pre-/postemergence test; type: in vivo, Setaria faberii; settings: Postemergence; for Plant response rating, Foxtail, Giant: scale 0 to 100, 0 no effect, 100 complete control
In short: as §1

[6] = test system: giant foxtail; experiment: Test A pre-/postemergence greenhouse test; type: in vivo, Setaria faberi; settings: for Plant response rating, Foxtail, Giant: 0 to 100 scale where 0 is no effect and 100 is complete control; for Foxtail, Giant plant response rating: 0 to 100 scale
In short: as §3

[7] = test system: rice; experiment: Test C flooded paddy test; type: in vivo, Oryza sativa; settings: Flood
In short: as §2

[8] = test system: wild oat; experiment: Test C pre-/postemergence test; type: in vivo, Avena fatua; settings: Postemergence; for Plant response rating, Oat, Wild: scale 0 to 100, 0 no effect, 100 complete control
In short: as §1

[9] = test system: lambsquarters; experiment: Test C pre-/postemergence test; type: in vivo, Chenopodium album; settings: Postemergence; for Plant response rating, Lambsquarters: scale 0 to 100, 0 no effect, 100 complete control
In short: as §1

[10] = test system: johnsongrass; experiment: Test C pre-/postemergence test; type: in vivo, Sorghum halepense; settings: Postemergence; for Plant response rating, Johnsongrass: scale 0 to 100, 0 no effect, 100 complete control
In short: as §1

[11] = test system: bermudagrass; experiment: Test C pre-/postemergence test; type: in vivo, Cynodon dactylon; settings: Postemergence; for Plant response rating, Bermudagrass: scale 0 to 100, 0 no effect, 100 complete control
In short: as §1

[12] = test system: velvetleaf; experiment: Test C pre-/postemergence test; type: in vivo, Abutilon theophrasti; settings: Postemergence; for Plant response rating, Velvetleaf: scale 0 to 100, 0 no effect, 100 complete control
In short: as §1

[13] = test system: Goosegrass; experiment: Test C pre-/postemergence test; type: in vivo, Eleusin indica; settings: Postemergence; for Plant response rating, Goosegrass: scale 0 to 100, 0 no effect, 100 complete control
In short: as §1

[14] = test system: redroot pigweed; experiment: Test A pre-/postemergence greenhouse test; type: in vivo, Amaranthus retroflexus; settings: for Plant response rating, Pigweed: 0 to 100 scale where 0 is no effect and 100 is complete control; for Pigweed plant response rating: 0 to 100 scale
In short: as §3

[15] = test system: velvetleaf; experiment: Test A pre-/postemergence greenhouse test; type: in vivo, Abutilon theophrasti; settings: for Plant response rating, Velvetleaf: 0 to 100 scale where 0 is no effect and 100 is complete control; for Velvetleaf plant response rating: 0 to 100 scale
In short: as §3

[16] = test system: corn; experiment: Test A pre-/postemergence greenhouse test; type: in vivo, Zea mays; settings: for Plant response rating, Corn: 0 to 100 scale where 0 is no effect and 100 is complete control; for Corn plant response rating: 0 to 100 scale
In short: as §3

[17] = test system: common ragweed; experiment: Test C pre-/postemergence test; type: in vivo, Ambrosia elation; settings: Postemergence; for Plant response rating, Ragweed: scale 0 to 100, 0 no effect, 100 complete control
In short: as §1

[18] = 62 g ai/ha, scale 0 to 100 (0 no effect, 100 complete control)
[19] = 250 g ai/ha, scale 0 to 100, 0 no effect, 100 complete control, 13 to 15 days
[20] = Postemergence, 500 g ai/ha, 0 is no effect, 100 is complete control
[21] = Preemergence, 125 g ai/ha, 0 no effect, 100 complete control

## CCn1nc(C(F)(F)F)c(C(C)S(=O)(=O)c2cccc[n+]2[O-])c1OCC(F)(F)F (centres unmarked) [Compound 69]
[1]; 31 g ai/ha
  Plant response rating (0 to 100), Surinam Grass: 0
[1]; 62 g ai/ha
  Plant response rating (0 to 100), Surinam Grass: 0
[1]; 125 g ai/ha
  Plant response rating, Surinam Grass: 0
[1]; 250 g ai/ha
  Plant response rating, Surinam Grass: 0
[2]; [18]
  Plant response rating, Ducksalad: 70
[2]; [19]
  Plant response rating, Ducksalad: 100
[3]; [18]
  Plant response rating, Barnyardgrass: 0
[3]; [19]
  Plant response rating, Barnyardgrass: 75
[4]; Postemergence, 125 g ai/ha
  Plant response rating, Wheat: 50
[4]; [20]
  Wheat plant response rating: 60
[4]; [21]
  Wheat plant response rating: 50
[4]; Preemergence, 500 g ai/ha
  Plant response rating, Wheat: 90
[5]; 31 g ai/ha
  Plant response rating (0 to 100), Foxtail, Giant: 0
[5]; 62 g ai/ha
  Plant response rating, Foxtail, Giant: 0
[5]; 125 g ai/ha
  Plant response rating, Foxtail, Giant: 0
[5]; 250 g ai/ha
  Plant response rating, Foxtail, Giant: 60
[6]; Postemergence, 125 g ai/ha
  Plant response rating, Foxtail, Giant: 80
[6]; [20]
  Foxtail, Giant plant response rating: 100
[6]; [21]
  Foxtail, Giant plant response rating: 100
[6]; Preemergence, 500 g ai/ha
  Plant response rating, Foxtail, Giant: 100
[7]; [18]
  Plant response rating, Rice: 40
[7]; [19]
  Plant response rating, Rice: 70
[8]; 31 g ai/ha
  Plant response rating (0 to 100), Oat, Wild: 0
[8]; 62 g ai/ha
  Plant response rating, Oat, Wild: 0
[8]; 125 g ai/ha
  Plant response rating, Oat, Wild: 0
[8]; 250 g ai/ha
  Plant response rating, Oat, Wild: 90
[9]; 31 g ai/ha
  Plant response rating (0 to 100), Lambsquarters: 0
[9]; 62 g ai/ha
  Plant response rating, Lambsquarters: 0
[9]; 125 g ai/ha
  Plant response rating, Lambsquarters: 0
[9]; 250 g ai/ha
  Plant response rating, Lambsquarters: 0
[10]; 31 g ai/ha
  Plant response rating (0 to 100), Johnsongrass: 0
[10]; 62 g ai/ha
  Plant response rating, Johnsongrass: 0
[10]; 125 g ai/ha
  Plant response rating, Johnsongrass: 20
[10]; 250 g ai/ha
  Plant response rating, Johnsongrass: 40
[11]; 31 g ai/ha
  Plant response rating (0 to 100), Bermudagrass: 0
[11]; 62 g ai/ha
  Plant response rating, Bermudagrass: 0
[11]; 125 g ai/ha
  Plant response rating, Bermudagrass: 0
[11]; 250 g ai/ha
  Plant response rating, Bermudagrass: 50
[12]; 31 g ai/ha
  Plant response rating (0 to 100), Velvetleaf: 0
[12]; 62 g ai/ha
  Plant response rating (0 to 100), Velvetleaf: 0
[12]; 125 g ai/ha
  Plant response rating, Velvetleaf: 0
[12]; 250 g ai/ha
  Plant response rating, Velvetleaf: 0
[13]; 31 g ai/ha
  Plant response rating (0 to 100), Goosegrass: 0
[13]; 62 g ai/ha
  Plant response rating, Goosegrass: 0
[13]; 125 g ai/ha
  Plant response rating, Goosegrass: 0
[13]; 250 g ai/ha
  Plant response rating, Goosegrass: 40
[14]; Postemergence, 125 g ai/ha
  Plant response rating, Pigweed: 30
[14]; [20]
  Pigweed plant response rating: 90
[14]; [21]
  Pigweed plant response rating: 70
[14]; Preemergence, 500 g ai/ha
  Plant response rating, Pigweed: 100
[15]; Postemergence, 125 g ai/ha
  Plant response rating, Velvetleaf: 50
[15]; [20]
  Velvetleaf plant response rating: 80
[15]; [21]
  Velvetleaf plant response rating: 10
[15]; Preemergence, 500 g ai/ha
  Plant response rating, Velvetleaf: 100
[16]; Postemergence, 125 g ai/ha
  Plant response rating, Corn: 60
[16]; [20]
  Corn plant response rating: 80
[16]; [21]
  Corn plant response rating: 0
[16]; Preemergence, 500 g ai/ha
  Plant response rating, Corn: 80
[17]; 31 g ai/ha
  Plant response rating (0 to 100), Ragweed: 0
[17]; 62 g ai/ha
  Plant response rating (0 to 100), Ragweed: 0
[17]; 125 g ai/ha
  Plant response rating, Ragweed: 0
[17]; 250 g ai/ha
  Plant response rating, Ragweed: 0
